Experimental data as given in patent US20250084063A1 (Incyte Corporation, priority 2023, published 2025).
pIC50: −log10 of the molar value.

Assays:
[1] = molecular target: T1, MRGPRX2 (Homo sapiens, UniProt Q96LB1); experiment: MRGPRX2 FLIPR calcium mobilization assay; assay type: cell-based; set-up: host or cells: CHO-K1; conditions: CHO-K1 cells stably expressing human MRGPRX2; Ca2+ release, agonist Cortistatin-14 at EC80
T1 sequence (Q96LB1 1-330): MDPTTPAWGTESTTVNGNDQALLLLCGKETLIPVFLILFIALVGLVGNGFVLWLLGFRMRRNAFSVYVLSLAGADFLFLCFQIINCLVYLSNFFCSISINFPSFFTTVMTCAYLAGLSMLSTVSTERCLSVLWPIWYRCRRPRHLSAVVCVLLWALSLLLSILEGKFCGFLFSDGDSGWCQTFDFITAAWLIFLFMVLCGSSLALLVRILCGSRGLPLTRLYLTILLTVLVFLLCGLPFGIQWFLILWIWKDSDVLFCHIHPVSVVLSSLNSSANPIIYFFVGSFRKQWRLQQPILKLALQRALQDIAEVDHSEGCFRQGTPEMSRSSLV
Procedure: Example A. MRGPRX2 FLIPR Calcium Mobilization Assay
Chinese hamster ovary (CHO-K1) cells stably expressing human MRGPRX2 were purchased from Genescript (Piscataway, NJ). The cells were maintained in culture medium (Ham's F-12K) containing 10% (v/v) FBS, 200 μg/mL Zeocin, 100 units/mL penicillin G and 100 μg/mL streptomycin (Life Technologies, Carlsbad, CA). For the assay, the cells were harvested and resuspended with culture medium without Zeocin before plating at 8000 cells per well in 20 μL in 384-well black clear bottom cell culture plates (VWR, Radnor, PA). After 24 h culture at 37° C. and 5% CO2, the cells were loaded with 20 μL/well of calcium dye (FLIPR Calcium 6 Assay Kit, Molecular Devices, San Jose, CA) diluted in loading buffer (1×Hank's Balanced Salt Solution (HBSS), 5 mM probenecid, 20 mM 4-(2-hydroxyethyl)-1-piperazineethanesulfonic acid (HEPES), pH 7.4, VWR, Radnor, PA) followed with 45 min incubation at 37° C. and 40 min at room temperature in the dark. Cells were then treated with the addition of 10 uL/well test compounds with a range of increasing concentrations diluted in the assay buffer (1×HBSS, 20 mM HEPES, pH 7.4, VWR, Radnor, PA) with FLIPR Penta (Molecular Devices. San Jose, CA) and incubated for 30 min. at room temperature. Ca^2+ release was measured with FLIPR Penta with 10 seconds basal fluorescence measurement, then 12.5 μL of 5× agonist Cortistatin-14 (Tocris, Minneapolis, MN) at final concentration corresponding to the EC80 were added followed with continued fluorescence signal monitoring for an additional 110 seconds. The base line adjusted (median of first 10s base line) max value of the Relative Fluorescence Unit (RFU) was plotted against compound concentrations. Wells with no compound were served as the positive controls, and wells with high concentration of reference antagonist were used as negative controls. IC50 curves were globally fitted with 3- or 4-parameter Hill equation in a Genedata Screener (Genedata Basel, Switzerland).

[2] = molecular target: T1, MRGPRX2; experiment: MRGPRX2 IP1 HTRF assay; assay type: cell-based; set-up: host or cells: CHO-K1; conditions: CHO-K1 cells stably expressing human MRGPRX2; IP1 accumulation, agonist Cortistatin 14 1 μM
Text: Example B: MRGPRX2 IP1 HTRF Assay
This assay measures compound inhibition of myo-Inositol 1 phosphate (IP1) accumulation in CHO-K1 cells. Chinese hamster ovary (CHO-K1) cells stably expressing human MRGPRX2 were purchased from GenScript (Piscataway, NJ).
For the HTRF IP1 determination, an IP-One GqKit (Perkin Elmer Cisbio, Waltham, MA), which includes all reagents and buffers in this protocol, was used. The cells were maintained in culture medium (Ham's F-12K) containing 10% (v/v) FBS, and 200 μg/mL Zeocin. For the assay, the cells were harvested and resuspended in culture medium with 2% FBS and without Zeocin, then were passed through a 40 μm filter. Cells were added at 20000 cells in a 5 μL/well to a 384-well white small volume cell culture plate (Greiner VWR, Radnor, PA) which contained 50 nL/well of test compound serially diluted at a selected concentration range in DMSO. 5 μL/well of prepared 2× Stimulation Buffer2 was then added to plates and was incubated at 37° C. with 5% CO2 for 1 h. 5 μL/well of agonist Cortistatin 14 (Bio-TechneR&D Systems, Minneapolis, MN) in 1× Stimulation Buffer 2, for a 1 μM final concentration, was then added to plates and incubated at 37° C. with 5% CO2 for 1 h. 6 μL/well of 1:20 diluted Detection Reagent Mix (d2 and Cryptate) was added to the plates and incubated for 1 h in the dark. Plates were read on the PHERAstar microplate reader (BMG Labtech Cary, NC) to determine the HTRF ratio of the acceptor and donor emission signals. The IP1 concentrations were calculated from a standard curve following the IP-One GQ kit instructions. Wells with DMSO only and wells with high concentration of reference antagonist were used as controls for normalization. Compound IC50 curves were globally fitted with 3- or 4-parameter Hill equation in a Genedata Screener (Genedata Basel, Switzerland).

Row | SMILES | pIC50 [1] | pIC50 [2]
1 | CN1CCC(CNc2cc(C(F)(F)F)nc3ccc(Cl)cc23)(c2ccccc2)CC1 [Example 15, 6-Chloro-N-((1-methyl-4-phenylpiperidin-4-yl)methyl)-2-(trifluoromethyl)quinolin-4-amine] | 7.00 to 10.00 | 7.00 to 10.00
2 | NS(=O)(=O)N1CC(CNc2cc(C(F)(F)F)nc3ccc(Cl)cc23)(c2ccc(Cl)cc2)C1 [Example 33, 3-(((6-Chloro-2-(trifluoromethyl)quinolin-4-yl)amino)methyl)-3-(4-chlorophenyl)azetidine-1-sulfonamide] | 7.00 to 10.00 | 7.00 to 10.00
3 | NS(=O)(=O)N1CC(CNc2cc(C(F)(F)F)nc3ccc(Cl)cc23)(c2ccc(F)c(F)c2)C1 [Example 34, 3-(((6-Chloro-2-(trifluoromethyl)quinolin-4-yl)amino)methyl)-3-(3,4-difluorophenyl)azetidine-1-sulfonamide] | 7.00 to 10.00 | 7.00 to 10.00
4 | NS(=O)(=O)N1CC(CNc2cc(C(F)(F)F)nc3ccc(Cl)cc23)(c2ccnc(Cl)c2)C1 [Example 35, 3-(((6-Chloro-2-(trifluoromethyl)quinolin-4-yl)amino)methyl)-3-(2-chloropyridin-4-yl)azetidine-1-sulfonamide] | 7.00 to 10.00 | 7.00 to 10.00
5 | NS(=O)(=O)N1CC(CNc2cc(C(F)(F)F)nc3ccc(Cl)cc23)(n2cc(Cl)cn2)C1 [Example 36, 3-(4-Chloro-1H-pyrazol-1-yl)-3-(((6-chloro-2-(trifluoromethyl)quinolin-4-yl)amino)methyl)azetidine-1-sulfonamide] | 7.00 to 10.00 | 7.00 to 10.00
6 | NC(=O)N1CC(CNc2cc(C(F)(F)F)nc3ccc(Cl)cc23)(c2ccc(F)cc2)C1 [Example 39, 3-(((6-Chloro-2-(trifluoromethyl)quinolin-4-yl)amino)methyl)-3-(4-fluorophenyl)azetidine-1-carboxamide] | 7.00 to 10.00 | 7.00 to 10.00
7 | CNC(=O)N1CC(CNc2cc(C(F)(F)F)nc3ccc(Cl)cc23)(c2ccccc2)C1 [Example 48, 3-(((6-Chloro-2-(trifluoromethyl)quinolin-4-yl)amino)methyl)-N-methyl-3-phenylazetidine-1-carboxamide] | 7.00 to 10.00 | 7.00 to 10.00
8 | N#Cc1ccc2nc(C(F)(F)F)cc(NCC3(c4ccc(F)cn4)CN(C(N)=O)C3)c2c1 [Example 58, 3-(((6-Cyano-2-(trifluoromethyl)quinolin-4-yl)amino)methyl)-3-(5-fluoropyridin-2-yl)azetidine-1-carboxamide] | 6.00 to 7.00 | 6.00 to 7.00
9 | Cc1cccc2nc(C(F)(F)F)cc(NCC3(c4ccc(F)cn4)CN(C(N)=O)C3)c12 [Example 62, 3-(5-Fluoropyridin-2-yl)-3-(((5-methyl-2-(trifluoromethyl)quinolin-4-yl)amino)methyl)azetidine-1-carboxamide] | < 6.00 | < 6.00
10 | N#Cc1cccc2c(NCC3(c4ccc(F)cn4)CN(C(N)=O)C3)cc(C(F)(F)F)nc12 [Example 64, 3-(((8-Cyano-2-(trifluoromethyl)quinolin-4-yl)amino)methyl)-3-(5-fluoropyridin-2-yl)azetidine-1-carboxamide] | < 6.00 | –

Now from value to compound:

Row | pIC50 [1] | pIC50 [2] | SMILES
11 | 7.00 to 10.00 | 7.00 to 10.00 | NC(=O)N1CCC(CNc2cc(C(F)(F)F)nc3ccc(Cl)cc23)(c2ccccc2)CC1 [Example 13, 4-(((6-Chloro-2-(trifluoromethyl)quinolin-4-yl)amino)methyl)-4-phenylpiperidine-1-carboxamide]
12 | 7.00 to 10.00 | 7.00 to 10.00 | NC(=O)N1CC(CNc2cc(C(F)(F)F)nc3ccc(Cl)cc23)(c2ccccc2)C1 [Example 40, 3-(((6-Chloro-2-(trifluoromethyl)quinolin-4-yl)amino)methyl)-3-phenylazetidine-1-carboxamide]
13 | 7.00 to 10.00 | 7.00 to 10.00 | NC(=O)N1CC(CNc2cc(C(F)(F)F)nc3ccc(Cl)cc23)(c2ccnc(Cl)c2)C1 [Example 42, 3-(((6-Chloro-2-(trifluoromethyl)quinolin-4-yl)amino)methyl)-3-(2-chloropyridin-4-yl)azetidine-1-carboxamide]
14 | 7.00 to 10.00 | 7.00 to 10.00 | Fc1ccc(C2(CNc3cc(C(F)(F)F)nc4ccc(Cl)cc34)COC2)cc1 [Example 50, 6-Chloro-N-((3-(4-fluorophenyl)oxetan-3-yl)methyl)-2-(trifluoromethyl)quinolin-4-amine]
15 | 7.00 to 10.00 | 7.00 to 10.00 | CNC(=O)N1CC(CNc2cc(C(F)(F)F)nc3ccc(Cl)cc23)(c2ccc(F)cn2)C1 [Example 51, 3-(((6-Chloro-2-(trifluoromethyl)quinolin-4-yl)amino)methyl)-3-(5-fluoropyridin-2-yl)-N-methylazetidine-1-carboxamide]
16 | 7.00 to 10.00 | 7.00 to 10.00 | CNC1CCC(CNc2cc(C(F)(F)F)nc3ccc(Cl)cc23)(c2ccccc2)C1 (centres unmarked) [Example 55, 6-Chloro-N-((3-(methylamino)-1-phenylcyclopentyl)methyl)-2 (trifluoromethyl)quinolin-4-amine]
17 | 7.00 to 10.00 | 6.00 to 7.00 | Cc1ccc2nc(C(F)(F)F)cc(NCC3(c4ccc(F)cn4)CN(C(N)=O)C3)c2c1 [Example 56, 3-(5-Fluoropyridin-2-yl)-3-(((6-methyl-2-(trifluoromethyl)quinolin-4-yl)amino)methyl)azetidine-1-carboxamide]
18 | 7.00 to 10.00 | – | NC(=O)N1CC(CNc2cc(C(F)(F)F)nc3cc(Cl)ccc23)(c2ccc(F)cn2)C1 [Example 57, 3-(((7-Chloro-2-(trifluoromethyl)quinolin-4-yl)amino)methyl)-3-(5-fluoropyridin-2-yl)azetidine-1-carboxamide]
19 | 6.00 to 7.00 | < 6.00 | NC(=O)N1CC(CNc2cc(C(F)(F)F)nc3cccc(F)c23)(c2ccc(F)cn2)C1 [Example 60, 3-(((5-Fluoro-2-(trifluoromethyl)quinolin-4-yl)amino)methyl)-3-(5-fluoropyridin-2-yl)azetidine-1-carboxamide]
20 | < 6.00 | < 6.00 | Cc1ccc2c(NCC3(c4ccc(F)cn4)CN(C(N)=O)C3)cc(C(F)(F)F)nc2c1 [Example 61, 3-(5-Fluoropyridin-2-yl)-3-(((7-methyl-2-(trifluoromethyl)quinolin-4-yl)amino)methyl)azetidine-1-carboxamide]
21 | 6.00 to 7.00 | < 6.00 | NC(=O)N1CC(CNc2cc(C(F)(F)F)nc3cc(C(F)(F)F)ccc23)(c2ccc(F)cn2)C1 [Example 63, 3-(((2,7-Bis(trifluoromethyl)quinolin-4-yl)amino)methyl)-3-(5-fluoropyridin-2-yl)azetidine-1-carboxamide]
22 | – | 6.00 to 7.00 | Cc1cc(C)n(C2(CNc3cc(C(F)(F)F)nc4ccc(Cl)cc34)CN(C(N)=O)C2)n1 [Example 105, 3-(((6-Chloro-2-(trifluoromethyl)quinolin-4-yl)amino)methyl)-3-(3,5-dimethyl-1H-pyrazol-1-yl)azetidine-1-carboxamide]
